These are literature values, as cited in patent US8476249B2, “Method of treating thrombocytopenia” (GlaxoSmithKline LLC, priority 2010, dated 2013).

The conditions of series [1]: specifically in the portal vein system.
For series [2] the following is noted: in vivo.

For `CC1=NN(c2ccc(C)c(C)c2)C(=O)/C1=N\Nc1cccc(-c2cccc(C(=O)O)c2)c1O.NCCO.NCCO` [eltrombopag, 3′-[(2Z)-[1-(3,4-dimethylphenyl)-1,5-dihydro-3-methyl-5-oxo-4H-pyrazol-4-ylidene]hydrazino]-2′-hydroxy-[1,1′-biphenyl]-3-carboxylic acid bis-(monoethanolamine)], the thrombotic events entry in series [1] is on record as “associated with thrombotic events”.
As to enoxaparin, the “occurrence of portal vein thrombosis” value in series [2] is on record as “reducing the occurrence of portal vein thrombosis”.
